# Target: T1, recombinant human Aggrecanase-2 Agg2-Phe628 (Homo sapiens, UniProt Q9UNA0)
# T1 sequence (Q9UNA0 262-628 limits assumed): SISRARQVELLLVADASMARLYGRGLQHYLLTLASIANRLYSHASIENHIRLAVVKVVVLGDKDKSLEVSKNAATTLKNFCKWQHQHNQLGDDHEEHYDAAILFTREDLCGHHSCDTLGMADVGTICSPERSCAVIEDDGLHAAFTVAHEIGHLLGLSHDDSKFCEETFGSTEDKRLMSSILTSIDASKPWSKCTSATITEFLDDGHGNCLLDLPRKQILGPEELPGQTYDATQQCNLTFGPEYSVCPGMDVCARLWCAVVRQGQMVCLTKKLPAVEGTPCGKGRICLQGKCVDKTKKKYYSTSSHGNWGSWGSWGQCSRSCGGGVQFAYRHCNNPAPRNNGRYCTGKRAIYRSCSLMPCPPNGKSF
# Assay: Aggrecanase 2 in vitro enzyme assay (Agg-2 FRET, quenched fluorescent peptide substrate)
# Assay type: biochemical
# Parameters: purified recombinant human Aggrecanase-2 Agg2-Phe628 (MW=41,737); This is a truncated form of full-length human aggrecanase-2; made in house; host or cells: CHO cells
# Details: concentration not given
# Method: A continuous assay was used in which the substrate was a synthetic peptide containing a fluorescent group (o-aminobenzyl, Abz), which was quenched by energy transfer to a 2,4-dinitrophenyl group (Dnp). The buffer used in this assay was 50 mM HEPES, pH 7.5, 100 mM NaCl, 5 mM CaCl2, 0.1% CHAPS, 5% glycerol. The source of enzyme was purified recombinant human Aggrecanase-2 Agg2-Phe628 (MW=41,737). This is a truncated form of full-length human aggrecanase-2 that was expressed in CHO cells and purified. The final concentration of Agg2-Phe628 was 0.5 μg/ml. […] It is a synthetic peptide that is designed after a portion of brevican, one of the naturally occurring substrates of Aggrecanase-2, of the sequence Abz-[…]-Dap(Dnp)-KK—NH2 (mass=1740). The concentration of this substrate stock was spectrophotometrically determined using the extinction coefficient at 354 nm of 18,172 M^−1cm^−1. […] The final concentration of substrate in the assay was 25 μM.
# Test compounds (in duplicate) were serially diluted from 2 mM to 0.01 μM in 100% DMSO. The total reaction volume was 100 μl. The buffer and enzyme were added first followed by addition of 10× inhibitor from the dilution plate. Enzyme and buffer alone samples were included in order to obtain the maximal rate of substrate cleavage. […] Then substrate was added, mixed and the reaction monitored for 40 min at 30° C. in kinetic mode using λex: 340 nm and % λem: 420 (GeminiXS Molecular Devices).
row,Agg-2 FRET Median PCT INHIB,SMILES
1,43%,CC(C)(C)c1ccc(OCC(=O)NC(c2cccc(F)c2)c2cc(Cl)c3cccnc3c2O)cc1 (stereo not drawn) [2-(4-tert-butylphenoxy)-N-[(5-chloro-8-hydroxyquinolin-7-yl)(3-fluorophenyl)methyl]acetamide]
2,54%,"CC(C)(C)c1ccc(NCC(=O)NC(c2ccccc2Cl)c2cc(Cl)c3cccnc3c2O)cc1 (stereo not drawn) [Example 20, N^2-(4-tert-butylphenyl)-N^1-[(5-chloro-8-hydroxyquinolin-7-yl)(2-chlorophenyl)methyl]glycinamide]"
3,57%,"Cc1ccc(C(NC(=O)CNc2ccc(C(C)(C)C)cc2)c2cc(Cl)c3cccnc3c2O)cc1 (stereo not drawn) [Example 27, N^2-(4-tert-butylphenyl)-N^1-[(5-chloro-8-hydroxyquinolin-7-yl)(4-methylphenyl)methyl]glycinamide]"
4,50%,"O=C(COc1ccc(Oc2ccccc2)cc1)NC(c1ccccc1)c1cc(Cl)c2cccnc2c1O (stereo not drawn) [Example 85, N-[(5-chloro-8-hydoxyquinolin-7-yl)(phenyl)methyl]-2-(4-phenoxyphenoxy)acetamide]"
5,57%,"O=C(COc1ccccc1)NC(c1ccc(Cl)cc1Cl)c1cc(Cl)c2cccnc2c1O (stereo not drawn) [N-[(5-chloro-8-hydroxyquinolin-7-yl)(2,4-dichlorophenyl)methyl]-2-phenoxyacetamide]"
6,60%,"Cc1ccc(C(NC(=O)COc2ccccc2)c2cc(Cl)c3cccnc3c2O)c(C)c1 (stereo not drawn) [N-[(5-chloro-8-hydroxyquinolin-7-yl)(2,4-dimethylphenyl)methyl]-2-phenoxyacetamide]"

# Same assay, conditions: read-out: Agg-2 FRET Median IC50
row,IC50,SMILES
1,2330 nM,CC(=O)c1ccc(OCC(=O)NC(c2cccc([N+](=O)[O-])c2)c2cc(Cl)c3cccnc3c2O)cc1 (stereo not drawn) [2-(4-acetylphenoxy)-N-[(5-chloro-8-hydroxyquinolin-7-yl)(3-nitrophenyl)methyl]acetamide]
2,828 nM,O=C(COCc1ccccc1)NC(c1cccc(F)c1)c1cc(Cl)c2cccnc2c1O (stereo not drawn) [2-(benzyloxy)-N-[(5-chloro-8-hydroxyquinolin-7-yl)(3-fluorophenyl)methyl]acetamide]
3,16900 nM,"O=C(CNc1cccnc1)NC(c1ccccc1Cl)c1cc(Cl)c2cccnc2c1O (stereo not drawn) [Example 18, N^1-[(5-chloro-8-hydroxyquinolin-7-yl)(2-chlorophenyl)methyl]-N^2-pyridin-3-ylglycinamide]"
4,1480 nM,"Cc1cc(NCC(=O)NC(c2ccccc2Cl)c2cc(Cl)c3cccnc3c2O)ccc1Cl (stereo not drawn) [Example 19, N^1-[(5-chloro-8-hydroxyquinolin-7-yl)(2-chlorophenyl)methyl]-N^2-(4-chloro-3-methylphenyl)glycinamide]"
5,9790 nM,"Cc1ccc(C(NC(=O)CNc2cccnc2)c2cc(Cl)c3cccnc3c2O)cc1 (stereo not drawn) [Example 22, N^1-[(5-chloro-8-hydroxyquinolin-7-yl)(4-methylphenyl)methyl]-N^2-pyridin-3-ylglycinamide]"
6,1120 nM,"CC(=O)c1ccc(NCC(=O)NC(c2ccc(C)cc2)c2cc(Cl)c3cccnc3c2O)cc1 (stereo not drawn) [Example 24, N^2-(4-acetylphenyl)-N^1-[(5-chloro-8-hydroxyquinolin-7-yl)(4-methylphenyl)methyl]glycinamide]"
7,1560 nM,"O=C(CNc1cccnc1)NC(c1cccc([N+](=O)[O-])c1)c1cc(Cl)c2cccnc2c1O (stereo not drawn) [Example 28, N^1-[(5-chloro-8-hydroxyquinolin-7-yl)(3-nitrophenyl)methyl]-N^2-pyridin-3-ylglycinamide]"
8,2770 nM,"CC(=O)Nc1ccc(NCC(=O)NC(c2cccc([N+](=O)[O-])c2)c2cc(Cl)c3cccnc3c2O)cc1 (stereo not drawn) [Example 31, N^2-[4-(acetylamino)phenyl]-N^1-[(5-chloro-8-hydroxyquinolin-7-yl)(3-nitrophenyl)methyl]glycinamide]"
9,15100 nM,"O=C(CNc1cccnc1)NC(c1cccc(F)c1)c1cc(Cl)c2cccnc2c1O (stereo not drawn) [Example 32, N^1-[(5-chloro-8-hydroxyquinolin-7-yl)(3-fluorophenyl)methyl]-N^2-pyridin-3-ylglycinamide]"
10,1490 nM,"Cc1ccc(C)c(C(NC(=O)COc2ccccc2)c2cc(Cl)c3cccnc3c2O)c1 (stereo not drawn) [Example 37, N-[(5-chloro-8-hydroxyquinolin-7-yl)(2,5-dimethylphenyl)methyl]-2-phenoxyacetamide]"
11,1320 nM,"Cc1cc(C(NC(=O)COc2ccccc2)c2cccc([N+](=O)[O-])c2)c(O)c2ncccc12 (stereo not drawn) [Example 46, N-[(8-hydroxy-5-methylquinolin-7-yl)(3-nitrophenyl)methyl]-2-phenoxyacetamide]"
12,1310 nM,"CN(CC(=O)NC(c1ccccc1Cl)c1cc(Cl)c2cccnc2c1O)Cc1ccccc1 (stereo not drawn) [Example 52, N^2-benzyl-N^1-[(5-chloro-8-hydroxyquinolin-7-yl)(2-chlorophenyl)methyl]-N^2-methylglycinamide]"
13,1440 nM,"CN(CC(=O)NC(c1cccc(F)c1)c1cc(Cl)c2cccnc2c1O)Cc1ccccc1 (stereo not drawn) [Example 55, N^2-benzyl-N^1-[(5-chloro-8-hydroxyquinolin-7-yl)(3-fluorophenyl)methyl]-N^2-methylglycinamide]"
14,776 nM,"Cc1ccc(C(NC(=O)CN(C)c2ccccc2)c2cc(Cl)c3cccnc3c2O)cc1 (stereo not drawn) [Example 58, N^1-[(5-chloro-8-hydroxyquinolin-7-yl)(4-methylphenyl)methyl]-N^2-methyl-N^2-phenylglycinamide]"
15,1280 nM,"Cc1ccc(C(NC(=O)CN(C)Cc2ccccc2)c2cc(Cl)c3cccnc3c2O)cc1 (stereo not drawn) [Example 59, N^2-benzyl-N^1-[(5-chloro-8-hydroxyquinolin-7-yl)(4-methylphenyl)methyl]-N^2-methylglycinamide]"
16,1830 nM,"Cc1ccc(C(NC(=O)CNCc2ccccc2)c2cc(Cl)c3cccnc3c2O)cc1 (stereo not drawn) [Example 60, N^2-benzyl-N^1-[(5-chloro-8-hydroxyquinolin-7-yl)(4-methylphenyl)methyl]glycinamide]"
17,559 nM,"CN(CC(=O)NC(c1cccc([N+](=O)[O-])c1)c1cc(Cl)c2cccnc2c1O)c1ccccc1 (stereo not drawn) [Example 62, N^1-[(5-chloro-8-hydroxyquinolin-7-yl)(3-nitrophenyl)methyl]-N^2-methyl-N^2-phenylglycinamide]"
18,765 nM,"O=C(CNCc1ccccc1)NC(c1cccc([N+](=O)[O-])c1)c1cc(Cl)c2cccnc2c1O (stereo not drawn) [Example 64, N^2-benzyl-N^1-[(5-chloro-8-hydroxyquinolin-7-yl)(3-nitrophenyl)methyl]glycinamide]"
19,1920 nM,"O=C(COc1ccccc1)NC(c1cccnc1)c1cc(Cl)c2cccnc2c1O (stereo not drawn) [Example 69, N-[(5-chloro-8-hydroxyquinolin-7-yl)(pyridin-3-yl)methyl]-2-phenoxyacetamide]"
20,5540 nM,"CN(C)c1ccc(C(NC(=O)COc2ccccc2)c2ccc3cccnc3c2O)cc1 (stereo not drawn) [Example 99, N-[[4-(dimethylamino)phenyl](8-hydroxyquinolin-7-yl)methyl]-2-phenoxyacetamide]"
21,1090 nM,O=C(COc1ccccc1)NC(c1ccc(F)cc1Cl)c1cc(Cl)c2cccnc2c1O (stereo not drawn) [N-[(2-chloro-4-fluorophenyl)(5-chloro-8-hydroxyquinolin-7-yl)methyl]-2-phenoxyacetamide]
22,1940 nM,O=C(COc1ccccc1)NC(c1ccc(O)cc1Cl)c1cc(Cl)c2cccnc2c1O (stereo not drawn) [N-[(2-chloro-4-hydroxyphenyl)(5-chloro-8-hydroxyquinolin-7-yl)methyl]-2-phenoxyacetamide]
23,2500 nM,O=C(COc1ccccc1)NC(c1ccccc1Cl)c1ccc2cccnc2c1O (stereo not drawn) [N-[(2-chlorophenyl)(8-hydroxyquinolin-7-yl)methyl]-2-phenoxyacetamide]
24,1040 nM,O=C(COc1ccccc1)NC(c1ccc(F)c(Cl)c1)c1cc(Cl)c2cccnc2c1O (stereo not drawn) [N-[(3-chloro-4-fluorophenyl)(5-chloro-8-hydroxyquinolin-7-yl)methyl]-2-phenoxyacetamide]
25,2760 nM,O=C(COc1ccccc1)NC(c1cccc(F)c1)c1ccc2cccnc2c1O (stereo not drawn) [N-[(3-fluorophenyl)(8-hydroxyquinolin-7-yl)methyl]-2-phenoxyacetamide]
26,3380 nM,O=C(COc1ccccc1)NC(c1ccc(Cl)cc1)c1ccc2cccnc2c1O (stereo not drawn) [N-[(4-chlorophenyl)(8-hydroxyquinolin-7-yl)methyl]-2-phenoxyacetamide]
27,1000 nM,Cc1ccccc1C(NC(=O)COc1ccccc1)c1cc(Br)c2cccnc2c1O (stereo not drawn) [N-[(5-bromo-8-hydroxyquinolin-7-yl)(2-methylphenyl)methyl]-2-phenoxyacetamide]
